Patent US20170158735A1, “METHOD FOR PRODUCING A RECOMBINANT PEPTIDE AND RESULTANT PEPTIDE” ("IVIX" Ltd., priority 2012, published 2017)
Ends that are not written are not given here.

Tested on: sexual behavior of female rats
Experiment: Lordosis test: sexual behavior of ovariectomized hormonally stimulated female rats with a sexually active male
Type: in vivo, rat
Details: for Percentage of lordoses / Number of acts of proceptive behavior: ovariectomized hormonally stimulated female rats, progesterone 0.5 mg/rat, test product 100 μg/rat; for Percentage of lordoses: negative control 0.73 ± 0.12; for Number of acts of proceptive behavior: negative control 14 ± 4; for Effect on sexual motivation / reproductive- and sexual-function stimulating activity (in words): lordosis model, female rats, 100 μg/rat
Procedure: Sexual behavior was recorded in ovariectomized hormonally stimulated females in direct contact with the sexually active male, or when such a contact was impossible. […]
Sexual behavior was recorded in ovariectomized hormonally stimulated females in direct contact with the sexually active male, or when such a contact was impossible.

Pro-Arg-Pro-Gly-Pro (PRPGP)
Percentage of lordoses (Table 4 / Example 8): 0.73 ± 0.14 | Number of acts of proceptive behavior (Table 4 / Example 8): 14 ± 6 acts

Thr-Lys-Pro-Phe (TKPF)
Effect on sexual motivation / reproductive- and sexual-function stimulating activity (in words): lack of sexual motivation effect

Thr-Lys-Pro (TKP)
Percentage of lordoses (Table 4 / Example 8): 0.97±0.12 | Number of acts of proceptive behavior (Table 4 / Example 8): 29±6 acts | Percentage of lordoses (Table 5 / Example 9): 0.96 ± 0.12 | Effect on sexual motivation / reproductive- and sexual-function stimulating activity (in words): intensification of sexual motivation

TKPRPF
Percentage of lordoses (Table 5 / Example 9): 0.94 ± 0.14 | Effect on sexual motivation / reproductive- and sexual-function stimulating activity (in words): intensification of sexual motivation

Thr-Lys-Pro-Arg-Pro (TKPRP)
Percentage of lordoses (Table 5 / Example 9): 0.99 ± 0.09 | Effect on sexual motivation / reproductive- and sexual-function stimulating activity (in words): intensification of sexual motivation

Arg-Pro-Gly-Pro (RPGP)
Percentage of lordoses (Table 4 / Example 8): 0.69 ± 0.14 | Number of acts of proceptive behavior (Table 4 / Example 8): 15 ± 4 acts

Thr-Lys-Pro-Arg (TKPR)
Effect on sexual motivation / reproductive- and sexual-function stimulating activity (in words): lack of sexual motivation effect

Pro-Gly-Pro (PGP)
Percentage of lordoses (Table 4 / Example 8): 0.74 ± 0.09 | Number of acts of proceptive behavior (Table 4 / Example 8): 13 ± 5 acts
